Data published in US11642369B2, “Method for enhancing expression of antioxidant in epidermis” (J-Network, Inc., priority 2020, dated 2023).

Columns and labels:
[1] = system: Nrf-2; assay: Expression of oxidative stress response gene Nrf-2, quantitative real-time PCR; type: cell-based, human; details: NHEM, GDS23 500, 1000, 2000 μM, 6 hours; mRNA corrected with GAPDH, control 100%; FIG. 1
Procedure: (§1) After samples were prepared using normal human epidermal melanocytes, RNA was extracted, and expression and amplification of genes of each of target substances (Nrf-2, PPARG, NQO-1, CAT, and HMOX1) were checked by real-time PCR. PPARG is the genetic code of the protein PPARγ and is one of oxidative stress response genes.
(§2) Sample 1 is a control (no GDS23 added). Samples 2 to 4 are different from one another in the amount of GDS23. • Sample 1: Control (N.C.) • Sample 2: GDS23 (500 μM) • Sample 3: GDS23 (1000 μM) • Sample 4: GDS23 (2000 μM)
(§3) Thereafter, RNA was extracted from the cultured cells for each sample. Reverse transcription of the extracted RNA was performed to generate cDNA, and the quantity of mRNA of each target substance was determined by quantitative real-time PCR expression analysis. GAPDH (glyceraldehyde-3-phosphate dehydrogenase) was used as an internal standard. In the analysis, the mRNA expression level of each target substance was corrected with a value of the expression level of GAPDH as the internal standard in the same sample, and thereafter the correction value for each sample was calculated, assuming the correction value for the control as 100%.

[2] = system: PPARG; assay: Expression of oxidative stress response gene PPARG, quantitative real-time PCR; type: cell-based, human; details: NHEM, GDS23 500, 1000, 2000 μM, 6 hours; mRNA corrected with GAPDH, control 100%; FIG. 2
Procedure: as §1, §2, §3

[3] = system: NQO-1; assay: Expression of antioxidant enzyme NQO-1, quantitative real-time PCR; type: cell-based, human; details: NHEM, GDS23 500, 1000, 2000 μM, 6 hours; mRNA corrected with GAPDH, control 100%; FIG. 3
Procedure: as §1, §2, §3

[4] = system: CAT; assay: Expression of antioxidant enzyme CAT, quantitative real-time PCR; type: cell-based, human; details: NHEM, GDS23 500, 1000 μM (Samples 1 to 3), 6 hours; mRNA corrected with GAPDH, control 100%; FIG. 4
Procedure: as §1, §2, §3

[5] = system: HMOX1; assay: Expression of antioxidant enzyme HMOX1, quantitative real-time PCR; type: cell-based, human; details: NHEM, GDS23 500, 1000, 2000 μM, 6 hours; mRNA corrected with GAPDH, control 100%; FIG. 5
Procedure: as §1, §2, §3

[6] = system: glutathione; assay: Expression of antioxidant protein: total glutathione per protein quantity, glutathione reductase recycling method; type: cell-based, human; details: NHEM, GDS23 500 to 4000 μM, 24 hours; control 100%; FIG. 6
Procedure: After samples were prepared using normal human epidermal melanocytes, the quantity of glutathione as an antioxidant protein in cells was checked.
Sample 5 is a control (no GDS23 added). Samples 6 to 9 are different from one another in the amount of GDS23. • Sample 5: Control (N.C.) • Sample 6: GDS23 (500 μM) • Sample 7: GDS23 (1000 μM) • Sample 8: GDS23 (2000 μM) • Sample 9: GDS23 (4000 μM)
Thereafter, for each sample, the protein quantity in epidermal melanocytes and the quantity of total glutathione (GSH+GSSG) were determined by a glutathione reductase recycling method, using an assay kit (TaKaRa BCA Protein Assay Kit: from Takara Bio Inc.). The total quantity of glutathione per protein quantity was obtained from the protein quantity and the total quantity of glutathione determined for each sample, and then an increased ratio for each sample was calculated when an increased ratio for the control was assumed as 100%.

[7] = Diameter of vesicles; type: physicochemical; details: vesicles self-formed in a 2% aqueous solution
Procedure: Sample 62 was added to a medium in the form of refined vesicles. The refined vesicles were prepared in the following manner. […] Among the vesicles obtained by this preparation method, 97.3% had diameters in a range of 20 to 40 nm. In general, for example, the average diameters of vesicles self-formed in a 2% aqueous solution of GDM12 and a 2% aqueous solution of GDS23 are both about 140 nm.

In the case of PEG-23 glycerol distearate [GDS23], the “expression level of Nrf-2” value [1] is reported as “enhances expression”, the “expression level of PPARG” value [2] is reported as “enhances expression” and the “expression level of NQO-1” value [3] is reported as “enhancement of NQO-1”. The “expression level of CAT” value [4] was “enhancement of CAT”, the “expression level of HMOX1” value [5] was “Enhancement of HMOX1” and the “total quantity of glutathione per protein quantity” value [6] was “promotes production of glutathione”. The “average diameters of vesicles” value [7] was “about 140 nm”.
With PEG-12 glycerol dimyristate [GDM12] the “average diameters of vesicles” value [7] was “about 140 nm”.
